Data: ChEMBL document CHEMBL1150976, “The selectivity of protein kinase inhibitors: a further update” (Biochem J, 2007)

What was measured:
[1] = target: T1, Serine/threonine-protein kinase D1 (Homo sapiens) (UniProt Q15139); assay: Percentage PKD1 activity remaining in the presence of 0.1uM inhibitor
T1 sequence (whole entry): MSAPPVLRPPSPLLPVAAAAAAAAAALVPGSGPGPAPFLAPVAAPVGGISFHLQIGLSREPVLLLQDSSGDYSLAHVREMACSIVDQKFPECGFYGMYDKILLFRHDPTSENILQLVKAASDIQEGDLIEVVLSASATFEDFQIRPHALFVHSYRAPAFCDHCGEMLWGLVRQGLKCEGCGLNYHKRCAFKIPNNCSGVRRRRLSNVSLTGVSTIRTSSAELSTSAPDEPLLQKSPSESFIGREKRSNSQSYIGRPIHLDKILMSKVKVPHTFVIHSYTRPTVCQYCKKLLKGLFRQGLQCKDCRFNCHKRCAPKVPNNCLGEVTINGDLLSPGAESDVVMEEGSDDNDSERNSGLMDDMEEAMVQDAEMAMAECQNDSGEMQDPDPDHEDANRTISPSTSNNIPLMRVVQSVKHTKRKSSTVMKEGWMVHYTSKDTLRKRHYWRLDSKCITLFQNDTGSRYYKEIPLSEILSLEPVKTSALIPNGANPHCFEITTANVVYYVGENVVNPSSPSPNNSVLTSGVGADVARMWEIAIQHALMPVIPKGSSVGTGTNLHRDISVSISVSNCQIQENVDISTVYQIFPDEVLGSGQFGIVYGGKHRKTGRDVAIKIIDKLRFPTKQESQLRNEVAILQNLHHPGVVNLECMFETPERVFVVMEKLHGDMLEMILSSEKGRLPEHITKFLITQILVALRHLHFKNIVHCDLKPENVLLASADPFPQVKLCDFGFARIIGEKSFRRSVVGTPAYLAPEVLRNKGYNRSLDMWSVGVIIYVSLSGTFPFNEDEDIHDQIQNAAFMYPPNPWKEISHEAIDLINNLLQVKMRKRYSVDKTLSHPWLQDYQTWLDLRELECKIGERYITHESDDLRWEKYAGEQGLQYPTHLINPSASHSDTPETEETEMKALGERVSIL

[2] = target: MAP kinase-activated protein kinase 2 (Homo sapiens) (UniProt P49137); assay: Percentage MAPKAPK2 activity remaining in the presence of 0.1uM inhibitor
[3] = target: Homeodomain-interacting protein kinase 2 (Homo sapiens) (UniProt Q9H2X6); assay: Percentage HIPK2 activity remaining in the presence of 0.01uM inhibitor
[4] = target: T2, Mitogen-activated protein kinase 13 (Homo sapiens) (UniProt O15264); assay: Percentage p38delta activity remaining in the presence of 0.01uM inhibitor
T2 sequence (whole entry): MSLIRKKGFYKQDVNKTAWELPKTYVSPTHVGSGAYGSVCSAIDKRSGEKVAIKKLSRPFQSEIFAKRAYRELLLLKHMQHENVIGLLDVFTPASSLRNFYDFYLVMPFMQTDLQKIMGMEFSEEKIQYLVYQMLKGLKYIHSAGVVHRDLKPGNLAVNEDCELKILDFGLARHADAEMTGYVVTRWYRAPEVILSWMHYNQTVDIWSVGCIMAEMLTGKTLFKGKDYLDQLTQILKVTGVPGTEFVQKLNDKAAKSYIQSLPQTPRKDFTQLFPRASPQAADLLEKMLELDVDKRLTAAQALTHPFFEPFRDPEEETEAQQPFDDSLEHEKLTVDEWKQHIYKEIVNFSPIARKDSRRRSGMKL

[5] = target: Aurora kinase B (Homo sapiens, UniProt Q96GD4); assay: Percentage Aurora B activity remaining in the presence of 0.01uM inhibitor
[6] = target: Tyrosine-protein kinase CSK (Homo sapiens, UniProt P41240); assay: Percentage CSK activity remaining in the presence of 0.01uM inhibitor
[7] = target: cAMP-dependent protein kinase catalytic subunit alpha (Homo sapiens, UniProt P17612); assay: Percentage PKA activity remaining in the presence of 0.01uM inhibitor
[8] = species: Homo sapiens; assay: Percentage PHK activity remaining in the presence of 0.01uM inhibitor
[9] = target: Serine/threonine-protein kinase N2 (Homo sapiens) (UniProt Q16513); assay: Percentage PRK2 activity remaining in the presence of 0.01uM inhibitor
[10] = target: T3, Mitogen-activated protein kinase 15 (Homo sapiens) (UniProt Q8TD08); assay: Percentage ERK8 activity remaining in the presence of 0.01uM inhibitor
T3 sequence (whole entry): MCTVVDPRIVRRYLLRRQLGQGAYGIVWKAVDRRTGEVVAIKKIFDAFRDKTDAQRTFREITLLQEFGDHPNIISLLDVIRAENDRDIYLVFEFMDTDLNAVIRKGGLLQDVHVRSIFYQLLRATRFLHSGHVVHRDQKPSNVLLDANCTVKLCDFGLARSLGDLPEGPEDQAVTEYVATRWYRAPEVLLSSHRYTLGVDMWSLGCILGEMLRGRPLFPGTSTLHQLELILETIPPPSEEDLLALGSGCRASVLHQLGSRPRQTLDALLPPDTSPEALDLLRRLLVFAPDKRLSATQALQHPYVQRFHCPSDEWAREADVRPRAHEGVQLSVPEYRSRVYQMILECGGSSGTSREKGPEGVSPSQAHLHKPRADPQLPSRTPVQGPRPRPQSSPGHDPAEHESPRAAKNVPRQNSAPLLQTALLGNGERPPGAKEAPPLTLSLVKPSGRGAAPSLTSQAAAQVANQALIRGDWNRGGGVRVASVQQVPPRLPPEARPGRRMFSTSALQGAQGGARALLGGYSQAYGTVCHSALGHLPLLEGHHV

[11] = target: Calcium/calmodulin-dependent protein kinase kinase 1 (Homo sapiens) (UniProt Q8N5S9); assay: Percentage CaMKKalpha activity remaining in the presence of 0.01uM inhibitor
[12] = target: T1, Serine/threonine-protein kinase D1 (Homo sapiens); assay: Percentage PKD1 activity remaining in the presence of 0.01uM inhibitor
[13] = target: Mitogen-activated protein kinase 9 (Homo sapiens, UniProt P45984); assay: Percentage JNK2 activity remaining in the presence of 0.01uM inhibitor
[14] = target: MAP kinase-interacting serine/threonine-protein kinase 1 (Homo sapiens) (UniProt Q9BUB5); assay: Percentage MNK1 activity remaining in the presence of 0.01uM inhibitor
MAP kinase-interacting serine/threonine-protein kinase 1 (Homo sapiens), sequence (Q9BUB5 whole entry, looked up): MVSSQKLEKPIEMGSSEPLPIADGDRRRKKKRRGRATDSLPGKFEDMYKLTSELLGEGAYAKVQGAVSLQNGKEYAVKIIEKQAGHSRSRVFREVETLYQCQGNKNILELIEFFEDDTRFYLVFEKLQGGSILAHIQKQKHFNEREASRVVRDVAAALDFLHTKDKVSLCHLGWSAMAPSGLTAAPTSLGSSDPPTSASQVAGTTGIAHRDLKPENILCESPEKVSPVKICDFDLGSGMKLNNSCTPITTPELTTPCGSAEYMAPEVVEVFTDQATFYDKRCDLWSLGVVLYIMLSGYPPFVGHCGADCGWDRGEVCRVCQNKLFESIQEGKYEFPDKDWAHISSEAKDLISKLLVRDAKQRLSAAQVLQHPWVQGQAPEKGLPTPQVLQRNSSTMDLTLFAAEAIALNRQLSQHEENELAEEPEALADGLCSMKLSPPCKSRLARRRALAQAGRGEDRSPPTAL

Aurora kinase B, sequence (Q96GD4 whole entry): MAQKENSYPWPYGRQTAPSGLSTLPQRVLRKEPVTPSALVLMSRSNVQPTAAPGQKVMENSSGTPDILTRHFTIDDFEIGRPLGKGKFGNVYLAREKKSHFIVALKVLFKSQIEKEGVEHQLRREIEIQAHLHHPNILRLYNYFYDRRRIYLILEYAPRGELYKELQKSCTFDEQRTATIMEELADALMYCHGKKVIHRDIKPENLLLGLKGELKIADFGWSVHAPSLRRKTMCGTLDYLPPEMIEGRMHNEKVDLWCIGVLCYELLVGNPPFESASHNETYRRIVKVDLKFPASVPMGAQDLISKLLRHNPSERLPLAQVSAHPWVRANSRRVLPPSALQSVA
MAP kinase-activated protein kinase 2 (Homo sapiens), sequence (P49137 whole entry, looked up): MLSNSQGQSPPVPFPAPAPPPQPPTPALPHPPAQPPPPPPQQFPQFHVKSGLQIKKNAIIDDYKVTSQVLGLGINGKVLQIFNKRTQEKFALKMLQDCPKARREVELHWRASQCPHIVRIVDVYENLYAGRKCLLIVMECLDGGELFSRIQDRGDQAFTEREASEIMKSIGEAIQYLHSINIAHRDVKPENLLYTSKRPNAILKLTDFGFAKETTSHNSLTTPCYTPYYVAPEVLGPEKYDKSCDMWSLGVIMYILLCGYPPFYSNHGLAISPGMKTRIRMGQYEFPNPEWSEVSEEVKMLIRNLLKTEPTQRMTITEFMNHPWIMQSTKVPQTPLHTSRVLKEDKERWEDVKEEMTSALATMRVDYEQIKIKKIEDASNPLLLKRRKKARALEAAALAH
Tyrosine-protein kinase CSK, sequence (P41240 2-450 limits assumed): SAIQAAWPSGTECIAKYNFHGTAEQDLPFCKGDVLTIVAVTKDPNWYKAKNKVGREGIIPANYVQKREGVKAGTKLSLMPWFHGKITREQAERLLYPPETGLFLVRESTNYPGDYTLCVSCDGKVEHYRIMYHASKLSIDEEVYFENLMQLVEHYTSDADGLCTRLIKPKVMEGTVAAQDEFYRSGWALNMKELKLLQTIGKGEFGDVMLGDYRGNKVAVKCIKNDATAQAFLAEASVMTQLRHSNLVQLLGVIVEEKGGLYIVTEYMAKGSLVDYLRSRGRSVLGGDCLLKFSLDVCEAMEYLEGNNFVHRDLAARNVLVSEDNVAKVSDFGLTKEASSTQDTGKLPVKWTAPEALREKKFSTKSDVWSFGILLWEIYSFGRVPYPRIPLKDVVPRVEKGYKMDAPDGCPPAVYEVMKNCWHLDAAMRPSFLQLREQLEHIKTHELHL
Calcium/calmodulin-dependent protein kinase kinase 1 (Homo sapiens), sequence (Q8N5S9 whole entry, looked up): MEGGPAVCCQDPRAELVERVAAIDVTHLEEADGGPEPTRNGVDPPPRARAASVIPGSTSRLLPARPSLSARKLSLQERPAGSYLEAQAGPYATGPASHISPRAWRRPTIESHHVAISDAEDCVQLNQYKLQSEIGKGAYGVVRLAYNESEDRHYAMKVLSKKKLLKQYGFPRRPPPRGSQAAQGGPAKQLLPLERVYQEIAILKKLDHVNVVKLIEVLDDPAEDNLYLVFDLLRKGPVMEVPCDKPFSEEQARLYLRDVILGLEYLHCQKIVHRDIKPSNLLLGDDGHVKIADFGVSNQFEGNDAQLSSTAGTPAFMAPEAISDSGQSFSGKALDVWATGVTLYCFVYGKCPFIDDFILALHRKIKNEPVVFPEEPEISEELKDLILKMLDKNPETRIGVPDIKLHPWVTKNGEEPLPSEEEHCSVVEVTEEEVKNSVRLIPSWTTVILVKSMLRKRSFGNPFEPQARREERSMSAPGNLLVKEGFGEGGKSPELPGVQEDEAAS
Homeodomain-interacting protein kinase 2 (Homo sapiens), sequence (Q9H2X6 whole entry, looked up): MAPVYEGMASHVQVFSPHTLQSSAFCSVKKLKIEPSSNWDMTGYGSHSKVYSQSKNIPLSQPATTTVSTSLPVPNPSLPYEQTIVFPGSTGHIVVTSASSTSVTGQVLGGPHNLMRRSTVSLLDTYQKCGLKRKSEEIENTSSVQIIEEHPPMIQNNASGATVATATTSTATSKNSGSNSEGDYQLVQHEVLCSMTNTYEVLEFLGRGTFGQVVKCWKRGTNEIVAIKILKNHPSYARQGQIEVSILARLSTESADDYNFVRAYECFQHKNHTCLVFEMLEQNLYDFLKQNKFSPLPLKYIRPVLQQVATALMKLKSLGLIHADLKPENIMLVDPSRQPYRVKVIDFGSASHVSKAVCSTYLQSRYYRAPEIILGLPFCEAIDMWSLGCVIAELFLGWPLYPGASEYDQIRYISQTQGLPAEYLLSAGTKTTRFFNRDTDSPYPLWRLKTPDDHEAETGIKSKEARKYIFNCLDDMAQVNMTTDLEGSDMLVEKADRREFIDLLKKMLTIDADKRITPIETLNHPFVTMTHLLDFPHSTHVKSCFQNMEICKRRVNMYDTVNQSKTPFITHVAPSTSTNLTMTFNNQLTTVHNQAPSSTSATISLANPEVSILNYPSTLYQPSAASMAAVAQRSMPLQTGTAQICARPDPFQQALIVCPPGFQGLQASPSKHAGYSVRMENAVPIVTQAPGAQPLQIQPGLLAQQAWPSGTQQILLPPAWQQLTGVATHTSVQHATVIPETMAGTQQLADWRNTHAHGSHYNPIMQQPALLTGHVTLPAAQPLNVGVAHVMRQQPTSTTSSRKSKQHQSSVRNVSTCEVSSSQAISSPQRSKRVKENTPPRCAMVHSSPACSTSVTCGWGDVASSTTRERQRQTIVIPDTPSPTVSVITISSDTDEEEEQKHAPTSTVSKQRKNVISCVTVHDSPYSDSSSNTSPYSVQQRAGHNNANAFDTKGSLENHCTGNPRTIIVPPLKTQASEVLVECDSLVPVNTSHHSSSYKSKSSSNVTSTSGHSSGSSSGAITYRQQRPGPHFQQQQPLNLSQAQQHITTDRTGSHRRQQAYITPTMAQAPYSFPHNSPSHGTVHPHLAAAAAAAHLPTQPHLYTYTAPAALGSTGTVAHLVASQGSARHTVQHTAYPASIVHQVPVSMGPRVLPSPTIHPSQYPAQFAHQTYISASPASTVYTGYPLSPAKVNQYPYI
Serine/threonine-protein kinase N2 (Homo sapiens), sequence (Q16513 whole entry, looked up): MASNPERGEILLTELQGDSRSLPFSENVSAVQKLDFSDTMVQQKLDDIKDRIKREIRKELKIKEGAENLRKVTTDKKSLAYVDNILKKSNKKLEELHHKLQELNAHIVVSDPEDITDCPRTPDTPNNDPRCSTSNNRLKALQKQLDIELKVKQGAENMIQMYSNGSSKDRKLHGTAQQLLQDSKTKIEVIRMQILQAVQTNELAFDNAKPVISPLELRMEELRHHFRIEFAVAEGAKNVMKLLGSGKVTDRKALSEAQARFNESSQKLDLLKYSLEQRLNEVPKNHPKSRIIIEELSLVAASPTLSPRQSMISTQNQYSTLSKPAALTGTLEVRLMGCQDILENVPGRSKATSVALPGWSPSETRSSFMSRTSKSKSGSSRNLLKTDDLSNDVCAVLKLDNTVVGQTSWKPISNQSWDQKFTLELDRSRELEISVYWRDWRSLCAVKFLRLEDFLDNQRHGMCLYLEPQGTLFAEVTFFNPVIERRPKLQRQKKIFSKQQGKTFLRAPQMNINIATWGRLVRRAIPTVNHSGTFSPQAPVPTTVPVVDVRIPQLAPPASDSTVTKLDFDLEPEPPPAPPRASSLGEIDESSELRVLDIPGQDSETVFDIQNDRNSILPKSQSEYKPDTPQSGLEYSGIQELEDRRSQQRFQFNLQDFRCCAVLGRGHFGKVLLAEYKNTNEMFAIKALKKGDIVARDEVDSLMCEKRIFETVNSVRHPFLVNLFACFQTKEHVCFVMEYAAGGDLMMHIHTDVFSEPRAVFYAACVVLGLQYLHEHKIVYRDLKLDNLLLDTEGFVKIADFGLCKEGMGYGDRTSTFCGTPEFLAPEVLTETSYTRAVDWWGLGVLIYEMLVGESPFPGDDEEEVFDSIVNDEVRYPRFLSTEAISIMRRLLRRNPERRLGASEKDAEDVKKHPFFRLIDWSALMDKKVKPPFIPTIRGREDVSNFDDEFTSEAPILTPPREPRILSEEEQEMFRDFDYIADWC
Mitogen-activated protein kinase 9, sequence (P45984 whole entry, looked up): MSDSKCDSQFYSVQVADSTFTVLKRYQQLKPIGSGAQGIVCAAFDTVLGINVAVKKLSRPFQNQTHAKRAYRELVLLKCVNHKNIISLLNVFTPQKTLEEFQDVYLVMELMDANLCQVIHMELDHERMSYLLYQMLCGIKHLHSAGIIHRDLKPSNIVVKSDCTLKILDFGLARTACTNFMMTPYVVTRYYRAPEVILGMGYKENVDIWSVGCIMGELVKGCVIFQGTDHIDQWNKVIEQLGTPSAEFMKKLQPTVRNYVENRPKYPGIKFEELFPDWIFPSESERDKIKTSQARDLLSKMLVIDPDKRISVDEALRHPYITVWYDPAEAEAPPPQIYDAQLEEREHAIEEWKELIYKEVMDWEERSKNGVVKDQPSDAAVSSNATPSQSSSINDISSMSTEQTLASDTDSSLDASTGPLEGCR

CC(C)CCN1c2nc(Nc3cc(F)c(O)c(F)c3)ncc2N(C)C(=O)C1C (centres undefined)
Activity [1]: 63% | Activity [2]: 89%

O=C(NCCCNc1nc(Nc2cccc(NC(=O)N3CCCC3)c2)ncc1I)c1cccs1
Activity [3]: 95% | Activity [4]: 91% | Activity ([5]; filed as antagonist): 17% | Activity [6]: 114% | Activity ([1]; filed as antagonist): 38% | Activity [7]: 102% | Activity [8]: 94% | Activity [9]: 79% | Activity ([10]; filed as antagonist): 40% | Activity [11]: 86% | Activity [2]: 108% | Activity [12]: 84% | Activity [13]: 101% | Activity [14]: 80%

Cc1n[nH]c2ccc(-c3cncc(OC[C@@H](N)Cc4c[nH]c5ccccc45)c3)cc12
Activity [3]: 73% | Activity [4]: 86% | Activity [5]: 81% | Activity [6]: 99% | Activity ([1]; filed as antagonist): 23% | Activity ([7]; filed as antagonist): 26% | Activity [8]: 86% | Activity ([9]; filed as antagonist): 17% | Activity [10]: 61% | Activity [11]: 112% | Activity [2]: 73% | Activity [12]: 63% | Activity [13]: 94% | Activity [14]: 120%

Cn1c2ccccc2c2c3c(c4c5ccccc5n(CCC#N)c4c21)CNC3=O
Activity ([1]; filed as antagonist): 5% | Activity [2]: 118%

CN(C)C[C@@H]1CCn2cc(c3ccccc32)C2=C(C(=O)NC2=O)c2cn(c3ccccc23)CCO1
Activity [2]: 114%

CN[C@@H]1C[C@H]2O[C@@](C)([C@@H]1OC)n1c3ccccc3c3c4c(c5c6ccccc6n2c5c31)C(=O)N[C@H]4O (stereo in doubt)
Activity [3]: 109% | Activity [4]: 94% | Activity [5]: 59% | Activity [6]: 80% | Activity [7]: 63% | Activity ([8]; filed as antagonist): 5% | Activity ([9]; filed as antagonist): 10% | Activity [10]: 92% | Activity [11]: 58% | Activity [12]: 83% | Activity [13]: 92% | Activity [14]: 85%

CC(C)[C@H](CO)Nc1nc(Nc2cccc(Cl)c2)c2ncn(C(C)C)c2n1 [PURVALANOLA]
Activity [1]: 85% | Activity [2]: 106%

Cn1cc(C2=C(c3cn(CCCSC(=N)N)c4ccccc34)C(=O)NC2=O)c2ccccc21
Activity [1]: 66% | Activity [2]: 90%
